Measurements reported in ChEMBL document CHEMBL1156987, “Novel azalides derived from 16-membered macrolides. III. Azalides modified at the C-15 and 4'' positions: Improved antibacterial activities” (Bioorg Med Chem, 2010).
≈ marks a conversion by molar mass, not a printed value.

Assays:
Format in all cases: functional
Staphylococcus aureus = experiment: Antibacterial activity against Staphylococcus aureus 209P JC1 after 20 hrs by agar dilution method; details: 209P JC1, 20 h
Streptococcus pneumoniae [1] = experiment: Antibacterial activity against Streptococcus pneumoniae DP1 type 1 after 20 hrs by agar dilution method; details: DP1 type1, 20 h
Streptococcus pneumoniae [2] = experiment: Antibacterial activity against Streptococcus pneumoniae 5 expressing constitutive ermB methylase after 20 hrs by agar dilution method; details: Streptococcus pneumoniae, 5, 20 h
Streptococcus pneumoniae [3] = experiment: Antibacterial activity against Streptococcus pneumoniae 6 expressing constitutive ermB methylase and mefA after 20 hrs by agar dilution method; details: Streptococcus pneumoniae, 6, 20 h
Streptococcus pneumoniae [4] = experiment: Antibacterial activity against Streptococcus pneumoniae 7 expressing constitutive ermB methylase after 20 hrs by agar dilution method; details: Streptococcus pneumoniae, 7, 20 h
Streptococcus pneumoniae [5] = experiment: Antibacterial activity against Streptococcus pneumoniae 8 expressing inducible ermB methylase after 20 hrs by agar dilution method; details: Streptococcus pneumoniae, 8, 20 h
Streptococcus pneumoniae [6] = experiment: Antibacterial activity against Streptococcus pneumoniae 9 expressing inducible ermB methylase after 20 hrs by agar dilution method; details: Streptococcus pneumoniae, 9, 20 h
Streptococcus pneumoniae [7] = experiment: Antibacterial activity against Streptococcus pneumoniae 10 expressing mefA efflux pump after 20 hrs by agar dilution method; details: Streptococcus pneumoniae, 10, 20 h
Streptococcus pneumoniae [8] = experiment: Antibacterial activity against Streptococcus pneumoniae 11 expressing mefA efflux pump after 20 hrs by agar dilution method; details: Streptococcus pneumoniae, 11, 20 h
Streptococcus pyogenes [9] = experiment: Antibacterial activity against Streptococcus pyogenes Cook after 20 hrs by agar dilution method
Streptococcus pyogenes [10] = experiment: Antibacterial activity against Streptococcus pyogenes 2 expressing constitutive ermB methylase after 20 hrs by agar dilution method; details: Streptococcus pyogenes, 2, 20 h
Streptococcus pyogenes [11] = experiment: Antibacterial activity against Streptococcus pyogenes 3 expressing mefA efflux pump after 20 hrs by agar dilution method; details: Streptococcus pyogenes, 3, 20 h
Haemophilus influenzae [12] = experiment: Antibacterial activity against Haemophilus influenzae 1 after 20 hrs by agar dilution method; details: Haemophilus influenzae, 1, 20 h
Haemophilus influenzae [13] = experiment: Antibacterial activity against Haemophilus influenzae 2 after 20 hrs by agar dilution method; details: Haemophilus influenzae, 2, 20 h
Haemophilus influenzae [14] = experiment: Antibacterial activity against Haemophilus influenzae 3 after 20 hrs by agar dilution method; details: Haemophilus influenzae, 3, 20 h

MIC (Staphylococcus aureus) | MIC (Streptococcus pneumoniae [1]) | MIC (Streptococcus pneumoniae [2]) | MIC (Streptococcus pneumoniae [3]) | MIC (Streptococcus pneumoniae [4]) | MIC (Streptococcus pneumoniae [5]) | MIC (Streptococcus pneumoniae [6]) | MIC (Streptococcus pneumoniae [7]) | MIC (Streptococcus pneumoniae [8]) | MIC (Streptococcus pyogenes [9]) | MIC (Streptococcus pyogenes [10]) | MIC (Streptococcus pyogenes [11]) | MIC (Haemophilus influenzae [12]) | MIC (Haemophilus influenzae [13]) | MIC (Haemophilus influenzae [14]) | SMILES
0.5 µg/mL (≈ 0.496 µM) | 0.015 µg/mL (≈ 0.0149 µM) | 32 µg/mL (≈ 31.8 µM) | 32 µg/mL (≈ 31.8 µM) | 32 µg/mL (≈ 31.8 µM) | 0.5 µg/mL (≈ 0.496 µM) | 0.5 µg/mL (≈ 0.496 µM) | 0.06 µg/mL (≈ 0.0596 µM) | 0.06 µg/mL (≈ 0.0596 µM) | 0.13 µg/mL (≈ 0.129 µM) | > 64 µg/mL | 0.5 µg/mL (≈ 0.496 µM) | 4 µg/mL (≈ 3.97 µM) | 16 µg/mL (≈ 15.9 µM) | 32 µg/mL (≈ 31.8 µM) | CCNC(=O)O[C@H]1[C@H](C)O[C@@H](O[C@H]2[C@H](N(C)C)[C@@H](O)[C@H](O[C@H]3[C@@H](CC=O)C[C@@H](C)[C@@H](O)CN(C)CCC[C@H](C/C=C/c4cccnc4)OC(=O)C[C@@H](OC(=O)CC)[C@@H]3OC)O[C@@H]2C)C[C@@]1(C)OC(=O)CC
1 µg/mL (≈ 0.978 µM) | 0.03 µg/mL (≈ 0.0293 µM) | 8 µg/mL (≈ 7.83 µM) | 8 µg/mL (≈ 7.83 µM) | 8 µg/mL (≈ 7.83 µM) | 0.25 µg/mL (≈ 0.245 µM) | 0.5 µg/mL (≈ 0.489 µM) | 0.06 µg/mL (≈ 0.0587 µM) | 0.06 µg/mL (≈ 0.0587 µM) | 0.13 µg/mL (≈ 0.127 µM) | > 32 µg/mL | 0.5 µg/mL (≈ 0.489 µM) | 4 µg/mL (≈ 3.91 µM) | 16 µg/mL (≈ 15.7 µM) | 32 µg/mL (≈ 31.3 µM) | CCNC(=O)O[C@H]1[C@H](C)O[C@@H](O[C@H]2[C@H](N(C)C)[C@@H](O)[C@H](O[C@H]3[C@@H](CC=O)C[C@@H](C)[C@@H](O)CN(C)CCC[C@H](C/C=C/c4ccc(N)nc4)OC(=O)C[C@@H](OC(=O)CC)[C@@H]3OC)O[C@@H]2C)C[C@@]1(C)OC(=O)CC
0.5 µg/mL (≈ 0.507 µM) | 0.06 µg/mL (≈ 0.0609 µM) | 32 µg/mL (≈ 32.5 µM) | 32 µg/mL (≈ 32.5 µM) | 32 µg/mL (≈ 32.5 µM) | 8 µg/mL (≈ 8.12 µM) | 8 µg/mL (≈ 8.12 µM) | 0.13 µg/mL (≈ 0.132 µM) | 0.13 µg/mL (≈ 0.132 µM) | 0.25 µg/mL (≈ 0.254 µM) | 32 µg/mL (≈ 32.5 µM) | 1 µg/mL (≈ 1.01 µM) | 8 µg/mL (≈ 8.12 µM) | 16 µg/mL (≈ 16.2 µM) | 16 µg/mL (≈ 16.2 µM) | CCC(=O)O[C@@H]1CC(=O)O[C@@H](C/C=C/c2ccc3ccccc3c2)CCCN(C)C[C@H](O)[C@H](C)C[C@H](CC=O)[C@H](O[C@@H]2O[C@H](C)[C@@H](O[C@H]3C[C@@](C)(O)[C@@H](OC(=O)CC)[C@H](C)O3)[C@H](N(C)C)[C@H]2O)[C@H]1OC
0.25 µg/mL (≈ 0.25 µM) | < 0.008 µg/mL | 4 µg/mL (≈ 4 µM) | 4 µg/mL (≈ 4 µM) | 4 µg/mL (≈ 4 µM) | 0.06 µg/mL (≈ 0.0599 µM) | 0.06 µg/mL (≈ 0.0599 µM) | 0.015 µg/mL (≈ 0.015 µM) | 0.015 µg/mL (≈ 0.015 µM) | 0.06 µg/mL (≈ 0.0599 µM) | 8 µg/mL (≈ 7.99 µM) | 0.06 µg/mL (≈ 0.0599 µM) | 2 µg/mL (≈ 2 µM) | 4 µg/mL (≈ 4 µM) | 4 µg/mL (≈ 4 µM) | CCNC(=O)O[C@H]1[C@H](C)O[C@@H](O[C@H]2[C@H](N(C)C)[C@@H](O)[C@H](O[C@H]3[C@@H](CC=O)C[C@@H](C)[C@@H](O)CN(C)CCC[C@H](C/C=C/c4cnc5ccccc5c4)OC(=O)C[C@@H](O)[C@@H]3OC)O[C@@H]2C)C[C@@]1(C)OC(=O)CC
0.25 µg/mL (≈ 0.25 µM) | < 0.008 µg/mL | 2 µg/mL (≈ 2 µM) | 4 µg/mL (≈ 4 µM) | 4 µg/mL (≈ 4 µM) | 0.06 µg/mL (≈ 0.0599 µM) | 0.06 µg/mL (≈ 0.0599 µM) | 0.015 µg/mL (≈ 0.015 µM) | 0.015 µg/mL (≈ 0.015 µM) | 0.03 µg/mL (≈ 0.03 µM) | 32 µg/mL (≈ 32 µM) | 0.13 µg/mL (≈ 0.13 µM) | 2 µg/mL (≈ 2 µM) | 4 µg/mL (≈ 4 µM) | 4 µg/mL (≈ 4 µM) | CCNC(=O)O[C@H]1[C@H](C)O[C@@H](O[C@H]2[C@H](N(C)C)[C@@H](O)[C@H](O[C@H]3[C@@H](CC=O)C[C@@H](C)[C@@H](O)CN(C)CCC[C@H](C/C=C/c4cncc5ccccc45)OC(=O)C[C@@H](O)[C@@H]3OC)O[C@@H]2C)C[C@@]1(C)OC(=O)CC
2 µg/mL (≈ 2.07 µM) | 0.03 µg/mL (≈ 0.0311 µM) | 4 µg/mL (≈ 4.14 µM) | 4 µg/mL (≈ 4.14 µM) | 4 µg/mL (≈ 4.14 µM) | 0.25 µg/mL (≈ 0.259 µM) | 0.25 µg/mL (≈ 0.259 µM) | 0.06 µg/mL (≈ 0.0621 µM) | 0.13 µg/mL (≈ 0.135 µM) | 0.13 µg/mL (≈ 0.135 µM) | 16 µg/mL (≈ 16.6 µM) | 0.13 µg/mL (≈ 0.135 µM) | 4 µg/mL (≈ 4.14 µM) | 8 µg/mL (≈ 8.28 µM) | 16 µg/mL (≈ 16.6 µM) | CCNC(=O)O[C@H]1[C@H](C)O[C@@H](O[C@H]2[C@H](N(C)C)[C@@H](O)[C@H](O[C@H]3[C@@H](CC=O)C[C@@H](C)[C@@H](O)CN(C)CCC[C@H](C/C=C/c4ccc(N)nc4)OC(=O)C[C@@H](O)[C@@H]3OC)O[C@@H]2C)C[C@@]1(C)OC(=O)CC
0.5 µg/mL (≈ 0.492 µM) | 0.015 µg/mL (≈ 0.0148 µM) | 1 µg/mL (≈ 0.984 µM) | 1 µg/mL (≈ 0.984 µM) | 1 µg/mL (≈ 0.984 µM) | 0.06 µg/mL (≈ 0.059 µM) | 0.03 µg/mL (≈ 0.0295 µM) | 0.015 µg/mL (≈ 0.0148 µM) | 0.015 µg/mL (≈ 0.0148 µM) | 0.03 µg/mL (≈ 0.0295 µM) | 2 µg/mL (≈ 1.97 µM) | 0.03 µg/mL (≈ 0.0295 µM) | 2 µg/mL (≈ 1.97 µM) | 4 µg/mL (≈ 3.94 µM) | 8 µg/mL (≈ 7.87 µM) | CCNC(=O)O[C@H]1[C@H](C)O[C@@H](O[C@H]2[C@H](N(C)C)[C@@H](O)[C@H](O[C@H]3[C@@H](CC=O)C[C@@H](C)[C@@H](O)CN(C)CCC[C@H](C/C=C/c4cnc(N)c5ccccc45)OC(=O)C[C@@H](O)[C@@H]3OC)O[C@@H]2C)C[C@@]1(C)OC(=O)CC
